One assay deals with JAK1 (Homo sapiens (Human), UniProt P23458). Briefly: Jak biochemical HTRF assay, JAK1. The following applies: HTRF biochemical assay, recombinant GST-tagged catalytic domain; read-out: JAK1 IC50. A general note: TR-FRET usually uses a lanthanide donor and a delayed reading to cut background.
The next assay concerns the target JAK2 (Homo sapiens (Human), UniProt O60674). As to the kind of experiment: Jak biochemical HTRF assay, JAK2. The following applies: HTRF biochemical assay, recombinant GST-tagged catalytic domain; read-out: JAK2 IC50.

Structures are written as SMILES.

Sequence of JAK1 (P23458 875-1153): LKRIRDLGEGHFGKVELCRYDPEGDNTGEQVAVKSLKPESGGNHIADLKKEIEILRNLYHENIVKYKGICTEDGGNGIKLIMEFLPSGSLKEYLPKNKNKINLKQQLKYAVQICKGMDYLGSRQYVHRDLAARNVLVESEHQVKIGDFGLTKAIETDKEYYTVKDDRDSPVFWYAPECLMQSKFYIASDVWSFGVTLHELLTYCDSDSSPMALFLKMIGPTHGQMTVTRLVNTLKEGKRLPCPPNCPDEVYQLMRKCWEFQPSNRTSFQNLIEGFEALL
Sequence of JAK2 (O60674 849-1124): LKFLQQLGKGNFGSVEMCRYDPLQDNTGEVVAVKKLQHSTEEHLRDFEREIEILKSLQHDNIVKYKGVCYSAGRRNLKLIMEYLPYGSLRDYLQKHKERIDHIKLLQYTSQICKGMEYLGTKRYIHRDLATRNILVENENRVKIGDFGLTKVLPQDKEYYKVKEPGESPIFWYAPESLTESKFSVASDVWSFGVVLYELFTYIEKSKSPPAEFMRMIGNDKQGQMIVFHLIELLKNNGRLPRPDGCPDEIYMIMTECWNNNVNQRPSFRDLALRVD

As to `N#C[C@H]1CCCC[C@@H]1n1nc(Nc2ccc3c(c2)CN(CC(F)(F)F)C3=O)c2c(=O)[nH]ccc21` [Example 3-10, (1S,2S)-2-(4-oxo-3-{[1-oxo-2-(2,2,2-trifluoroethyl)-2,3-dihydro-1H-isoindol-5-yl]amino}-4,5-dihydro-1H-pyrazolo[4,3-c]pyridin-1-yl)cyclohexanecarbonitrile], the IC50 – broadly, the concentration needed to halve the response being measured – on JAK1 turned out to be 0.12 nM; at JAK2 it was 0.43 nM.
As for `Cn1ccc(NC(=O)Cc2cccc(Nc3nn([C@H]4CCCC[C@@H]4C#N)c4cc[nH]c(=O)c34)c2)n1` [Example 3-11, 2-[3-({1-[(1S,2S)-2-cyanocyclohexyl]-4-oxo-4,5-dihydro-1H-pyrazolo[4,3-c]pyridin-3-yl}amino)phenyl]-N-(1-methyl-1H-pyrazol-3-yl)acetamide], the results for the IC50 on JAK1 and on JAK2 were 0.41 nM and 3.3 nM, respectively.
Take `N#C[C@@H]1CCCC[C@H]1n1nc(Nc2cccc(CNC(=O)c3ncccn3)c2)c2c(=O)[nH]ccc21` [Example 3-14, N-[3-({1-[(1R,2R)-2-cyanocyclohexyl]-4-oxo-4,5-dihydro-1H-pyrazolo[4,3-c]pyridin-3-yl}amino)benzyl]pyrimidine-2-carboxamide]: the IC50 came to 38 nM on JAK1 and 68 nM on JAK2.
As for `Cn1ccc(NC(=O)Cc2cccc(Nc3nn([C@@H]4CCCC[C@H]4C#N)c4cc[nH]c(=O)c34)c2)n1` [Example 3-15, 2-[3-({1-[(1R,2R)-2-cyanocyclohexyl]-4-oxo-4,5-dihydro-1H-pyrazolo[4,3-c]pyridin-3-yl}amino)phenyl]-N-(1-methyl-1H-pyrazol-3-yl)acetamide], the IC50 at JAK1 is 14 nM; on JAK2 it was 30 nM.
Consider `CC(C)(C)OC(=O)NCc1cccc(Nc2nn([C@H]3CCCC[C@@H]3C#N)c3cc[nH]c(=O)c23)c1` [Example 3-16, tert-butyl [3-({1-[(1S,2S)-2-cyanocyclohexyl]-4-oxo-4,5-dihydro-1H-pyrazolo[4,3-c]pyridin-3-yl}amino)benzyl]carbamate], for which the IC50 at JAK1 amounted to 1.4 nM; on JAK2, 3.3 nM.
For `N#C[C@H]1CCCC[C@@H]1n1nc(Nc2cccc(CNC(=O)c3ncccn3)c2)c2c(=O)[nH]ccc21` [Example 3-17, N-[3-({1-[(1S,2S)-2-cyanocyclohexyl]-4-oxo-4,5-dihydro-1H-pyrazolo[4,3-c]pyridin-3-yl}amino)benzyl]pyrimidine-2-carboxamide], in that order: 0.91 nM and 5.8 nM.
As to `CC(C)NS(=O)(=O)c1ccc(Nc2nn([C@H]3CCCC[C@@H]3C#N)c3cc[nH]c(=O)c23)cc1` [Example 3-18, 4-({1-[(1S,2S)-2-cyanocyclohexyl]-4-oxo-4,5-dihydro-1H-pyrazolo[4,3-c]pyridin-3-yl}amino)-N-(1-methylethyl)benzenesulfonamide], the IC50 on JAK1 is 0.12 nM; at JAK2, 0.37 nM.
Turning to `N#C[C@H]1CCCC[C@@H]1n1nc(Nc2ccc(S(=O)(=O)NCc3ccccc3)cc2)c2c(=O)[nH]ccc21` [Example 3-19, N-benzyl-4-({1-[(1S,2S)-2-cyanocyclohexyl]-4-oxo-4,5-dihydro-1H-pyrazolo[4,3-c]pyridin-3-yl}amino)benzenesulfonamide], the IC50 on JAK1 was 0.21 nM; at JAK2 it was 1.2 nM.
Turning to `N#C[C@H]1CCCC[C@@H]1n1nc(Nc2ccc(S(=O)(=O)NCC3CC3)cc2)c2c(=O)[nH]ccc21` [Example 3-20, 4-({1-[(1S,2S)-2-cyanocyclohexyl]-4-oxo-4,5-dihydro-1H-pyrazolo[4,3-c]pyridin-3-yl}amino)-N-(cyclopropylmethyl)benzene-sulfonamide], the IC50 came out at 0.13 nM on JAK1 and 0.6 nM at JAK2.
On to `COCCNS(=O)(=O)c1ccc(Nc2nn([C@H]3CCCC[C@@H]3C#N)c3cc[nH]c(=O)c23)cc1` [Example 3-21, 4-({1-[(1S,2S)-2-cyanocyclohexyl]-4-oxo-4,5-dihydro-1H-pyrazolo[4,3-c]pyridin-3-yl}amino)-N-(2-methoxyethyl)benzenesulfon-amide], for which the half-maximal inhibitory concentration (IC50) on JAK1 came to 0.17 nM; on JAK2 it was 0.79 nM.
Regarding `N#C[C@H]1CCCC[C@@H]1n1nc(Nc2ccc(S(=O)(=O)NC3CCCCC3)cc2)c2c(=O)[nH]ccc21` [Example 3-22, 4-({1-[(1S,2S)-2-cyanocyclohexyl]-4-oxo-4,5-dihydro-1H-pyrazolo[4,3-c]pyridin-3-yl}amino)-N-cyclohexylbenzenesulfonamide], the IC50 at JAK1 amounted to 0.4 nM; on JAK2, 1.2 nM.
On to `N#C[C@H]1CCCC[C@@H]1n1nc(Nc2ccc(S(=O)(=O)N3CCCCC3)cc2)c2c(=O)[nH]ccc21` [Example 3-23, (1S,2S)-2-(4-oxo-3-{[4-(piperidin-1-ylsulfonyl)phenyl]amino}-4,5-dihydro-1H-pyrazolo[4,3-c]pyridin-1-yl)cyclohexanecarbonitrile], for which the IC50 at JAK1 was 0.31 nM; on JAK2, 0.48 nM.
On to `N#C[C@H]1CCCC[C@@H]1n1nc(Nc2ccc(S(=O)(=O)N3CCOCC3)cc2)c2c(=O)[nH]ccc21` [Example 3-24, (1S,2S)-2-(3-{[4-(morpholin-4-ylsulfonyl)phenyl]amino}-4-oxo-4,5-dihydro-1H-pyrazolo[4,3-c]pyridin-1-yl)cyclohexanecarbonitrile], for which the IC50 was 0.15 nM at JAK1 and 0.47 nM at JAK2.
For `N#C[C@H]1CCCC[C@@H]1n1nc(Nc2ccccc2)c2c(=O)[nH]ccc21` [Example 3-25, (1S,2S)-2-[4-oxo-3-(phenylamino)-4,5-dihydro-1H-pyrazolo[4,3-c]pyridin-1-yl]cyclohexanecarbonitrile] the same measures were 0.45 nM and 3.2 nM.
As for `N#C[C@H]1CCCC[C@@H]1n1nc(Nc2cccc(Cn3ccnn3)c2)c2c(=O)[nH]ccc21` [Example 3-26, (1S,2S)-2-(4-oxo-3-{[3-(1H-1,2,3-triazol-1-ylmethyl)phenyl]amino}-4,5-dihydro-1H-pyrazolo[4,3-c]pyridin-1-yl)cyclohexanecarbonitrile], the IC50 stood at 0.1 nM on JAK1 and 0.49 nM on JAK2.
For `Cc1cc(Nc2nn([C@H]3CCCC[C@@H]3C#N)c3cc[nH]c(=O)c23)ccc1C(=O)N1CCCC1` [Example 3-27, (1S,2S)-2-(3-{[3-methyl-4-(pyrrolidin-1-ylcarbonyl)phenyl]amino}-4-oxo-4,5-dihydro-1H-pyrazolo[4,3-c]pyridin-1-yl)cyclohexanecarbonitrile], the IC50 at JAK1 turned out to be 0.13 nM; on JAK2, 0.2 nM.
Consider `N#C[C@H]1CCCC[C@@H]1n1nc(Nc2cccc(Cn3nccn3)c2)c2c(=O)[nH]ccc21` [Example 3-28, (1S,2S)-2-(4-oxo-3-{[3-(2H-1,2,3-triazol-2-ylmethyl)phenyl]amino}-4,5-dihydro-1H-pyrazolo[4,3-c]pyridin-1-yl)cyclohexanecarbonitrile], for which the IC50 amounted to 1 nM at JAK1 and 0.93 nM on JAK2.
With `N#C[C@H]1CCCC[C@@H]1n1nc(Nc2ccc(CNC(=O)c3cnco3)cc2)c2c(=O)[nH]ccc21` [Example 3-29, N-[4-({1-[(1S,2S)-2-cyanocyclohexyl]-4-oxo-4,5-dihydro-1H-pyrazolo[4,3-c]pyridin-3-yl}amino)benzyl]-1,3-oxazole-5-carboxamide], the results for the IC50 on JAK1 and on JAK2 were 0.32 nM and 1.5 nM, respectively.
Regarding `N#C[C@H]1CCCC[C@@H]1n1nc(Nc2ccc(CNC(=O)c3ncccn3)cc2)c2c(=O)[nH]ccc21` [Example 3-30, N-[4-({1-[(1S,2S)-2-cyanocyclohexyl]-4-oxo-4,5-dihydro-1H-pyrazolo[4,3-c]pyridin-3-yl}amino)benzyl]pyrimidine-2-carboxamide], the concentration for half-maximal inhibition (IC50) on JAK1 amounted to 0.29 nM; at JAK2 it was 2 nM.
Turning to `CC(O)c1cccc(Nc2nn([C@H]3CCCC[C@@H]3C#N)c3cc[nH]c(=O)c23)c1` (stereo partly drawn) [Example 3-31, (1S,2S)-2-(3-{[3-(1-hydroxyethyl)phenyl]amino}-4-oxo-4,5-dihydro-1H-pyrazolo[4,3-c]pyridin-1-yl)cyclohexanecarbonitrile], the IC50 on JAK1 was found to be 0.46 nM; at JAK2 it was 1.7 nM.
Take `CC(C)(C)OC(=O)NCc1ccc(Nc2nn([C@H]3CCCC[C@@H]3C#N)c3cc[nH]c(=O)c23)cc1` [Example 3-32, tert-butyl [4-({1-[(1S,2S)-2-cyanocyclohexyl]-4-oxo-4,5-dihydro-1H-pyrazolo[4,3-c]pyridin-3-yl}amino)benzyl]carbamate]: the results for the IC50 on JAK1 and at JAK2 were 0.45 nM and 1.5 nM, respectively.
In the case of `N#C[C@H]1CCCC[C@@H]1n1nc(Nc2cccc(CN3CCOCC3)c2)c2c(=O)[nH]ccc21` [Example 3-33, (1S,2S)-2-(3-{[3-(morpholin-4-ylmethyl)phenyl]amino}-4-oxo-4,5-dihydro-1H-pyrazolo[4,3-c]pyridin-1-yl)cyclohexanecarbonitrile], the IC50 was found to be 1.3 nM on JAK1 and 1.7 nM at JAK2.
For `CN(C)Cc1cccc(Nc2nn([C@H]3CCCC[C@@H]3C#N)c3cc[nH]c(=O)c23)c1` [Example 3-34, (1S,2S)-2-[3-({3-[(dimethylamino)methyl]phenyl}amino)-4-oxo-4,5-dihydro-1H-pyrazolo[4,3-c]pyridin-1-yl]cyclohexanecarbonitrile], the IC50 at JAK1 and at JAK2 was 1.1 nM throughout.
For `CC(C)(C)OC(=O)NCc1cc(Nc2nn([C@H]3CCCC[C@@H]3C#N)c3cc[nH]c(=O)c23)ccc1F` [Example 3-35, tert-butyl [5-({1-[(1S,2S)-2-cyanocyclohexyl]-4-oxo-4,5-dihydro-1H-pyrazolo[4,3-c]pyridin-3-yl}amino)-2-fluorobenzyl]carbamate], the IC50 is 3.2 nM at JAK1 and 4.7 nM at JAK2.
For `CC(C)(C)OC(=O)NCc1cc(F)cc(Nc2nn([C@H]3CCCC[C@@H]3C#N)c3cc[nH]c(=O)c23)c1` [Example 3-36, tert-butyl [3-({1-[(1S,25)-2-cyanocyclohexyl]-4-oxo-4,5-dihydro-1H-pyrazolo[4,3-c]pyridin-3-yl}amino)-5-fluorobenzyl]carbamate], in that order: 2.3 nM and 3.8 nM.

For the origin of these results see patent publication US9725445B2, “Cycloalkyl nitrile pyrazolo pyridones as Janus kinase inhibitors” (Merck Sharp & Dohme Corp., priority 2013, dated 2017).
